Reference: PMC5630390, “7-ketocholesterol and 27-hydroxycholesterol decreased doxorubicin sensitivity in breast cancer cells: estrogenic activity and mTOR pathway” (Oncotarget, 2017)

Biological target: T1, ERα (Homo sapiens, UniProt P03372)
T1 construct: gene ESR1; recombinant human ERα expressed in yeast with a LacZ reporter construct
T1 sequence (P03372 1-595): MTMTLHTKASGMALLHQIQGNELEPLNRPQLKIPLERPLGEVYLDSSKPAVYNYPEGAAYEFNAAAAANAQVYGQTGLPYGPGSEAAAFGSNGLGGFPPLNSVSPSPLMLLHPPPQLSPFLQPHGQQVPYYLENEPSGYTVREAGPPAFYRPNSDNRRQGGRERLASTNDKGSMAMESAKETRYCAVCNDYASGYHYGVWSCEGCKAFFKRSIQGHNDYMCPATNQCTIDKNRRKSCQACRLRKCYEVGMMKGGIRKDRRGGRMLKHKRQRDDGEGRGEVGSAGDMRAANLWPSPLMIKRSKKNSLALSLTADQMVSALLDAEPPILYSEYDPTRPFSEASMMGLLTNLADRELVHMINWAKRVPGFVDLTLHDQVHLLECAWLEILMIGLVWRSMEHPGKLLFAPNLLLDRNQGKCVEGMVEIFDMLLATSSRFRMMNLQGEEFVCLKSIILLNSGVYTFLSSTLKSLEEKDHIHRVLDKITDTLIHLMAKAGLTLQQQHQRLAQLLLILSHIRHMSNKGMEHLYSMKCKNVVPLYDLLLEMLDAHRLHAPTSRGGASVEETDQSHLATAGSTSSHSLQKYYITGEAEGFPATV
Assay: yeast ER reporter (YES) assay, agonist mode, […] h; weak, […] stimulation at […]
Format: cell-based

CC(C)CCC[C@@H](C)[C@H]1CC[C@H]2[C@@H]3C(=O)C=C4C[C@@H](O)CC[C@]4(C)[C@H]3CC[C@]12C [7-KC, 7-ketocholesterol]
activation at 50 µM: 14%
